The values that follow come from patent EP4603105A1, “PHARMACEUTICAL COMPOSITION CONTAINING CYCLIC COMPOUND HAVING SELECTIVE KRAS INHIBITORY EFFECT AGAINST HRAS AND NRAS” (CHUGAI SEIYAKU KABUSHIKI KAISHA, priority 2022, dated 2024).

Assay [1] addresses GDP-bound KRAS wild-type protein (Homo sapiens, UniProt P01116). Description: Binding to KRAS by surface plasmon resonance (SPR), dissociation constant KD. To be noted: 1:1 binding model. Put shortly: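 Compound binding is evaluated by SPR single-cycle kinetics, with concentrations added intermittently from low to high for 75 s each. Target surfaces carry GDP-loaded biotinylated Avi-RAS at about 100–300 RU, regenerated after each cycle; temperature 30°C. A 1:1 binding model gives KD.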
(Surface plasmon resonance follows binding to a sensor surface in real time, without labels.)

Assay [2] concerns the target GDP-bound NRAS wild-type protein (Homo sapiens, UniProt P01111). The assay can be described thus: Binding to NRAS by surface plasmon resonance (SPR), KD and KD ratio to KRAS. The method in brief: (§1)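 GDP-bound biotin-Avi RAS captured at ~100–300 RU, 30°C, pH 7.4 HBS containing 10 µM GDP, 10 mM MgCl2, 1 mM DTT, 0.01% Tween 20 and 4% DMSO. KD by 1:1 fitting.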
A further assay addresses HRAS wild-type protein (Homo sapiens, UniProt P01112). The assay can be described thus: Binding to HRAS by surface plasmon resonance (SPR), KD and KD ratio to KRAS. The method in brief:
as §1

The test system of assay [3] is human lung cancer strain NCI-H441. The format is cell-based. Put shortly:
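Readout: […] after the ATP-based reagent. Compound: serial dilutions in dimethyl sulfoxide.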

Setting [4] is: ratio of KD for GDP-bound NRAS wild-type protein to KD for KRAS.
[5] abbreviates: ratio of KD for HRAS wild-type protein to KD for KRAS.
Setting [6] is: ratio of KD value for GDP-bound NRAS wild-type protein to KD value for KRAS (SPR).
The mark [7] stands for this setting: ratio of KD value for HRAS wild-type protein to KD value for KRAS (SPR).

Chain of HRAS wild-type protein (P01112 whole entry): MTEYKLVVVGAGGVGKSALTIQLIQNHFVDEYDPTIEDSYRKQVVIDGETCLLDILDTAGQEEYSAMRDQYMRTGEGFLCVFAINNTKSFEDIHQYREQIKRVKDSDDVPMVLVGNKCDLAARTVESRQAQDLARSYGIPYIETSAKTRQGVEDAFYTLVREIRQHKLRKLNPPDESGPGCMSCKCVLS
Chain of GDP-bound NRAS wild-type protein (P01111 whole entry): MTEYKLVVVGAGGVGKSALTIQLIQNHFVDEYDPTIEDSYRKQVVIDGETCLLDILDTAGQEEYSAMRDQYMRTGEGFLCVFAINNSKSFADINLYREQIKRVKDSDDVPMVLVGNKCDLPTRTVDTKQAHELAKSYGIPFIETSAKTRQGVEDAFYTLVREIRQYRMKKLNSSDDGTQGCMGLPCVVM
Chain of GDP-bound KRAS wild-type protein (P01116 1-188 isoform P01116-2): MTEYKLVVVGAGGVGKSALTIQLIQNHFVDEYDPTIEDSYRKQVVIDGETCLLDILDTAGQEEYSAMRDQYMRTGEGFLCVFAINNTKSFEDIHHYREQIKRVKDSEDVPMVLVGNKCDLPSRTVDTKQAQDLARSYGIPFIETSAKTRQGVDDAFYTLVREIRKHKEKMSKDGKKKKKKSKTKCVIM

The molecule `CCO[C@@H]1C[C@H]2C(=O)NC3(CCC3)C(=O)N(C)[C@@H](C3CCCC3)C(=O)N(C)[C@H](C(=O)N(C)C)CC(=O)N(C)[C@@H](CC3CCCC3)C(=O)N[C@@H]([C@@H](C)CC)C(=O)N(C)CC(=O)N(C)[C@H]3C/C=C\CCN(C3=O)[C@@H](Cc3ccc(C)cc3)C(=O)N(C)CC(=O)N[C@@H](CCc3ccc(C(F)(F)F)c(C4CC4)c3)C(=O)N2C1` [PP2681] showed an equilibrium dissociation constant (Kd) in assay [1] of 0.37 nM. In addition, the “NRAS /KRAS” value in assay [2] (setting [4]) is “A (a compound having 10 or more and less than 20 is denoted as A)”. In addition, the “HRAS /KRAS” value at HRAS wild-type protein (setting [5]) was “A (a compound having 10 or more and less than 20 is denoted as A)”. Half-maximal inhibition in assay [3] (IC50) required 29.1 nM.
For the molecule `CCO[C@@H]1C[C@H]2C(=O)NC3(CC(C)(C)C3)C(=O)N(C)[C@@H](C3CCCC3)C(=O)N(C)[C@H](C(=O)N(C)C)CC(=O)N(C)[C@@H]([C@H](C)OC)C(=O)N[C@@H]([C@@H](C)CC)C(=O)N3CCC[C@H]3C(=O)N(C)[C@H]3C/C=C\CCN(C3=O)[C@@H](Cc3ccc(C)cc3)C(=O)N(C)CC(=O)N[C@@H](CCc3ccc(C(F)(F)F)c(OC)c3)C(=O)N2C1` [PP3197], in assay [1], binding was put at a Kd of 1.4 nM. In addition, in assay [2] (setting [4]), the “NRAS /KRAS” value was “A (a compound having 10 or more and less than 20 is denoted as A)”. Further, the “HRAS /KRAS” value on HRAS wild-type protein (setting [5]) is “A (a compound having 10 or more and less than 20 is denoted as A)”. In assay [3], this molecule had an IC50 of 130 nM.
In turn, `CCC[C@H]1C(=O)N[C@@H]([C@@H](C)CC)C(=O)N(C)CC(=O)N(C)[C@H]2C/C=C\CCN(C2=O)[C@@H](Cc2ccc(C)cc2)C(=O)N(C)CC(=O)N[C@@H](CCc2ccc(C(F)(F)F)c(OC)c2)C(=O)N2C[C@@H](C)C[C@H]2C(=O)NC2(CCC2)C(=O)N(C)[C@@H](C2CCCC2)C(=O)N(C)[C@H](C(=O)N(C)CC)CC(=O)N1C` [PP1840] had a Kd in assay [1] (Single Cycle Kinetics) of 0.12 nM. Besides, the “NRAS /KRAS” value in assay [2] (setting [6]) is “A (a compound having 10 or more and less than 20 is denoted as A)”. Moreover, the “HRAS /KRAS” value at HRAS wild-type protein (setting [7]) is “B (a compound having 3 or more and less than 10 is denoted as B)”. In assay [3], the IC50 came to 26.8 nM.
In the case of `CCCO[C@@H]1C[C@H]2C(=O)NC3(CC(C)(C)C3)C(=O)N(C)[C@@H](C3CCCC3)C(=O)N(C)[C@H](C(=O)N(C)CC)CC(=O)N(C)[C@H]3CCCc4ccc(cc4)C[C@@H](C(=O)N(C)CC(=O)N[C@@H](CCc4ccc(C(F)(F)F)c(OC)c4)C(=O)N2C1)N1CC/C=C\C[C@@H](C1=O)N(C)C(=O)CN(C)C(=O)[C@H]([C@@H](C)CC)NC3=O` [PP3083], in assay [1], the Kd came to 0.077 nM. Further, the “NRAS /KRAS” value in assay [2] (setting [4]) was “A (a compound having 10 or more and less than 20 is denoted as A)”. Also, the “HRAS /KRAS” value on HRAS wild-type protein (setting [5]) was “A (a compound having 10 or more and less than 20 is denoted as A)”. The same molecule gave an IC50 in assay [3] of 2.5 nM.
`CCC[C@H]1C(=O)N[C@@H]([C@@H](C)CC)C(=O)N(C)CC(=O)N(C)[C@H]2C/C=C\CCN(C2=O)[C@@H](Cc2ccc(C)cc2)C(=O)N(C)CC(=O)N[C@@H](CCc2cc(F)c(C(F)(F)F)c(F)c2)C(=O)N2C[C@H](C)C[C@H]2C(=O)NC2(CCC2)C(=O)N(C)[C@@H](C2CCCC2)C(=O)N(C)[C@H](C(=O)N(C)CC)CC(=O)N1C` [PP1862] returned an equilibrium dissociation constant (Kd) in assay [1] (Single Cycle Kinetics) of 0.12 nM. For the same molecule, the “NRAS /KRAS” value in assay [2] (setting [6]) is “A (a compound having 10 or more and less than 20 is denoted as A)”. The “HRAS /KRAS” value at HRAS wild-type protein (setting [7]) was “A (a compound having 10 or more and less than 20 is denoted as A)”. In addition, the midpoint of inhibition in assay [3], the IC50, lay at 22.2 nM.
`CC[C@H](C)[C@@H]1NC(=O)[C@H](C2CC2)N(C)C(=O)C[C@@H](C(=O)N(C)C)N(C)C(=O)[C@H](C2CCCC2)N(C)C(=O)C2(CCC2)N(C)C(=O)[C@@H]2C[C@@H](C)CN2C(=O)[C@H](CCc2cc(F)c(C(F)(F)F)c(F)c2)NC(=O)CN(C)C(=O)[C@H](Cc2ccc(C)cc2)N2CC/C=C\C[C@@H](C2=O)N(C)C(=O)CN(C)C1=O` [PP1788] yielded a Kd in assay [1] (Single Cycle Kinetics) of 0.063 nM. Also, the “NRAS /KRAS” value in assay [2] (setting [6]) is “B (a compound having 3 or more and less than 10 is denoted as B)”. In addition, at HRAS wild-type protein (setting [7]), the “HRAS /KRAS” value is “B (a compound having 3 or more and less than 10 is denoted as B)”. Further, the IC50 in assay [3] worked out at 6.2 nM.

By Kd is commonly meant a measure of binding affinity in units of concentration. As usually defined, the IC50 is the midpoint of a concentration-inhibition curve. A lower IC50 goes with greater potency in that assay.
